Experimental findings from patent US20060008574A1, “Galactosyl isomalt, method for production and use thereof” (priority 2002, published 2006) are described below.

The experiment relates to human feces. The experiment in a line: In vitro fermentation in human feces. Format: cell-based. The following applies: for Degradation rate: 0.5% (w/v) substrate, feces suspension, anaerobic, 37° C. The procedure: Incubation of carbohydrates with human feces allows statements to be made about the rate of metabolization by the bacterial population and formation of the short-chain fatty acid butyric acid.
To invest the fermentability in an in vitro fermentation experiment, Raftilose® P95 (fructooligosaccharides, DP4-5), galactosyl lactose (Oligomate DP 3) and lactosucrose were used for comparison as carbohydrates of similar structure and degree of polymerization, in addition to β-galactosyl isomalts.
An anaerobic medium of the following composition was used for the in vitro experiments:
9 mL of the anaerobic medium 1 described above are mixed with 0.5% (w/v) of the galactosyl isomalts to be tested (prepared according to Examples 1-3) and the corresponding controls lactosucrose and galactosyl lactose and then inoculated with 1 mL of a 10% feces suspension (mixed feces from two subjects) in anaerobic 50 mmol/L phosphate buffer, pH 7.0, to which 0.5 g/L cysteine/HCl was added beforehand as reducing agent.
The batches are then incubated in “Hungate” test tubes for a maximum of 28 h while shaking at 37° C. Samples are taken at various times and tested for content of residual oligosaccharides, short-chain fatty acids, lactic acid and pH.

On to `OCC1O[C@H](OC[C@@H](O)[C@@H](O)[C@H](O)C(O)CO)C(O)C(O[C@@H]2OC(CO)[C@H](O)C(O)C2O)[C@@H]1O` (mixture of isomers) [β-1,3-Galactosyl isomalt, β-D-galactosyl-(1→3)-α-D-glucosyl-(1→6)-D-sorbitol(β-1,3-galactosyl-1,6-GPS) and β-D-galactosyl-(1→3)-α-D-glucosyl-(1→1)-D-mannitol(β-1,3-galactosyl-1,1-GPM)], for which the “Butyrate content (end sample)” value (end of fermentation with human feces) turned out to be 13.3 mmol/L. The Degradation rate is 62% (incubation time 7 (h)), 93.6% (incubation time 22 (h)) and 97% (incubation time 28 (h)).
